Measurements taken from US20240067603A1, “CUBANYL BIGUANIDE COMPOUNDS” (REGENTS OF THE UNIVERSITY OF MINNESOTA, priority 2020, published 2024).

Tests used:
[1] = Toxicity / tolerance of dosing in mice; assay type: in vivo
Experimental: Study 1 was performed by dose escalation of SC HBB from 4 mg/kg qd to 12 mg/kg qd with female CD-1 mice (Envigo) approximately 4-8 weeks of age. N=5 mice per HBB dose group, n=10 naïve control mice.
Study 2 two was performed by dose escalation of SC HBB from 16 mg/kg qd to 24 mg/kg qd with female BALB/c mice (Envigo) approximately 6-8 weeks of age. N=4 mice per HBB dose group, n=3 naïve control mice
Study 3 was performed by dose escalation of SC HBB from 16 mg/kg qd to 24 mg/kg qd with female C57BL/6 mice (CR) approximately 6-8 weeks of age. N=12 for HBB dose group, n=3 naïve control mice.

MCF-7 cells = assay: TMRE mitochondrial membrane potential in MCF-7 cells; assay type: cell-based, human; settings: 10 μM, FIGS. 4A-4B
Experimental: FIG. 4A. Effect of HCB on mitochondrial cross membrane potential Δψ in MCF-7 cells. MCF-7 cells were seeded at 20,000 cells/well into a clear bottom black 96 well microplate. After treatments were added for 2 hours (FCCP control for 10 minutes), TMRE (tetramethylrhodamine, ethyl ester, Ex/Em 549/575) was added to a final concentration of 400 nM and incubation continued for additional 30 minutes. Media was removed and cells washed twice with PBS and 100 ul of PBS was added in the end. TMRE fluorescence was then measured with a plate reader. Results are reported as mean fluorescence intensity±S.D. (n=8, * indicates statistically significant difference from the DMSO control).
FIG. 4B. Effect of DCB and HCB on mitochondrial trans-membrane potential Δψ in MCF-7 cells. […] TMRE fluorescence was then measured with a plate reader. Results are reported as mean fluorescence intensity±S.D. (n=8, * indicates statistically significant difference from the DMSO control).
Mitochondrial cross membrane potential (Δψ) alteration in MCF-7 cells were measured by monitoring Δψ sensitive TMRE fluorescence intensity. […] TMRE fluorescence was then measured with a plate reader. Results are reported as mean fluorescence intensity±S.D. (n=8, * indicates statistically significant difference from the DMSO control).
TMRE Δψm measurement. […] Fluorescence was read at Ex 549 nm/Em 575 nm. […]

Row | SMILES | tolerance of daily SC dosing above 12 mg/kg ([1]; SC 16 to 24 mg/kg qd, female BALB/c mice, FIG. 21) | tolerance of dose escalation ([1]; daily SC 4 to 12 mg/kg over approximately 2 months, female CD-1 mice, FIG. 20) | MTD ([1]; female, CD-1 (Study 1), BALB/c (Study 2), C57BL/6 (Study 3), mouse, in vivo, sc, daily) [mg/kg] | effect on splenic or lymph node CD4 or CD8 T cells ([1]; mice) | toxicity in mice ([1]; mouse, in vivo) | MTD ([1]; mouse, in vivo, ip, 4 times per week, no more than 2 consecutive days) [mg/kg] | tolerance of daily SC dosing ([1]; study day 3 to day 26, female C57BL/6 mice, FIG. 22) | effect on mitochondrial membrane potential (MCF-7 cells)
1 | CCCCCCNC(=N)NC(=N)NCc1ccccc1 [HBB, N1-hexyl-N5-benzyl-biguanide] | not as well tolerated | well tolerated | 12 | no observed effect | acceptable toxicity | 6 | well tolerated | 
2 | CCCCCCNC(=N)NC(=N)NCC12C3C4C5C3C1C5C42 (centres unmarked) [HCB, Hexyl Cubanomethyl Biguanide] |  |  |  |  |  |  |  | inhibited the mitochondrial membrane potential
